Key:
[1] = target: T1, Lyp1 (Lyp1-YPet) (Saccharomyces cerevisiae, UniProt P32487); test: competition with […]-lysine uptake in S. cerevisiae cells; format: cell-based; conditions: 20 µM [14C]-lysine, 100 mM potassium phosphate, 10 mM glucose, pH 6.0, 30 °C; competitor
T1 construct: full-length, YPet fluorescent protein fusion, plasmid-expressed in S. cerevisiae, assayed in whole cells
T1 sequence (P32487 1-611): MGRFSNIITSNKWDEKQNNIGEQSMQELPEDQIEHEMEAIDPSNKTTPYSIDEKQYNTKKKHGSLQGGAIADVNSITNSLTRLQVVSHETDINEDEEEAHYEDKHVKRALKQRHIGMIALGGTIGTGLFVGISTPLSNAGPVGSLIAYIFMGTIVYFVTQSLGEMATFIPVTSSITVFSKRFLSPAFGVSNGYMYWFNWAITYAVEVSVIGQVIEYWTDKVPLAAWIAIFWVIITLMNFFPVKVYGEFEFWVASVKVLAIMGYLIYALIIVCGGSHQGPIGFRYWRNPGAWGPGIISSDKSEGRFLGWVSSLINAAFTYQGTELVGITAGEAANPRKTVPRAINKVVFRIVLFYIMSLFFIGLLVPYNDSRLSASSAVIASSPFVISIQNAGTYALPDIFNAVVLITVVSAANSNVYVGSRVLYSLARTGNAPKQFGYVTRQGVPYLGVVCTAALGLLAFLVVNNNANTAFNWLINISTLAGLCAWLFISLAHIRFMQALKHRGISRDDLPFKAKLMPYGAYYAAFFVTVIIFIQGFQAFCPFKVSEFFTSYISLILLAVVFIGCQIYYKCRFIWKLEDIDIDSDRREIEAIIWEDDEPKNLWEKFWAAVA

[2] = target: T2, Lyp1 (Lyp1-YPet) (Saccharomyces cerevisiae, UniProt P32487, I280A/G281A/F282A); test: initial rate of […]-lysine uptake in S. cerevisiae cells; format: cell-based; conditions: out-to-in transport; 100 mM potassium phosphate, 10 mM glucose, pH 6.0, 30 °C; labelled compound
T2 construct: full-length, YPet fluorescent protein fusion, plasmid-expressed in S. cerevisiae, assayed in whole cells
T2 sequence (P32487 1-611 I280A/G281A/F282A): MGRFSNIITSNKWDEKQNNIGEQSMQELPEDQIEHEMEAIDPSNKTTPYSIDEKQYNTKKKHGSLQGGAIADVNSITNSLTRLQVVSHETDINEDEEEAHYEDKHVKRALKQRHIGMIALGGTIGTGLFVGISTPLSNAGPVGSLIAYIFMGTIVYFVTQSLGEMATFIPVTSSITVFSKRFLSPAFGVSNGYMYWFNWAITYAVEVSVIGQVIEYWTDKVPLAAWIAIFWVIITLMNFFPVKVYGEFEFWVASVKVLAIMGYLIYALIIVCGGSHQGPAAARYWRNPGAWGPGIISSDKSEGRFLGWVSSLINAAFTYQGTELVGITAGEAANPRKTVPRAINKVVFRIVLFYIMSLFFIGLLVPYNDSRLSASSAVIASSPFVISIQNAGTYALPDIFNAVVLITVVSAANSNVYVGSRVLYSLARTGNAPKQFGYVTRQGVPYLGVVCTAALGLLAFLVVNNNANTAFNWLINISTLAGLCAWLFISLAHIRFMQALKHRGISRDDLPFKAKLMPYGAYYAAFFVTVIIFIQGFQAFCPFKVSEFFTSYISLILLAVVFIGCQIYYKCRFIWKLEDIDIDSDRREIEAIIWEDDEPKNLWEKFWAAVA

[3] = target: T3, Lyp1 (Lyp1-YPet) (Saccharomyces cerevisiae, UniProt P32487, G289A/W291A); test: as above; format: cell-based; conditions: out-to-in transport; 100 mM potassium phosphate, 10 mM glucose, pH 6.0, 30 °C; labelled compound
T3 construct: full-length, YPet fluorescent protein fusion, plasmid-expressed in S. cerevisiae, assayed in whole cells
T3 sequence (P32487 1-611 G289A/W291A): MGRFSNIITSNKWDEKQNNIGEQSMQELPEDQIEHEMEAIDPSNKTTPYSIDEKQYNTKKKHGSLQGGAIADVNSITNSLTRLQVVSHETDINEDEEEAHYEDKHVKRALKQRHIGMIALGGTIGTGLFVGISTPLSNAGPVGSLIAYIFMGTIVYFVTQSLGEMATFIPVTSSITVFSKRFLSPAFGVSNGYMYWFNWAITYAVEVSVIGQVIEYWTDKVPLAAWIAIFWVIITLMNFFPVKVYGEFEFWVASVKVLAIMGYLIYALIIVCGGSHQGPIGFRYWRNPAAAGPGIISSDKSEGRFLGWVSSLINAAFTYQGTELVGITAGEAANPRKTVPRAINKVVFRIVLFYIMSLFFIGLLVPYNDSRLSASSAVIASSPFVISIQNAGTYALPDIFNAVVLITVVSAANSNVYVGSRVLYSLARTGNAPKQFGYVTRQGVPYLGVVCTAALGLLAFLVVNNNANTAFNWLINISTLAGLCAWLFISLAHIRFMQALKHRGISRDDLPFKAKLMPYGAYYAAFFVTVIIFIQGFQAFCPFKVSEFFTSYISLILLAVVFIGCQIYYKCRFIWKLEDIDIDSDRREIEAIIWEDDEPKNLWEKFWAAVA

[4] = substrate: NCCCC[C@H](N)C(=O)O; test: cells, lysate or membranes; format: cell-based, Saccharomyces cerevisiae; conditions: out-to-in transport, 100 mM potassium phosphate, 10 mM glucose, pH 6.0, 30 °C, labelled compound

C[C@H](N)C(=O)O [alanine]
% reduction of lysine transport at 100 mM [1]: > 80%

N=C(N)NCCC[C@H](N)C(=O)O [arginine]
% reduction of lysine transport at 100 mM [1]: > 80%

N[C@@H](Cc1cnc[nH]1)C(=O)O [histidine]
% reduction of lysine transport at 100 mM [1]: > 80%

NCCCC[C@H](N)C(=O)O [L-lysine]
Km [2]: > 100 µM
Km [3]: > 100 µM

B1: Lyp1 (Lyp1-YPet) (Saccharomyces cerevisiae S288C) (protein)
chain: MGRFSNIITSNKWDEKQNNIGEQSMQELPEDQIEHEMEAIDPSNKTTPYSIDEKQYNTKKKHGSLQGGAIADVNSITNSLTRLQVVSHETDINEDEEEAHYEDKHVKRALKQRHIGMIALGGTIGTGLFVGISTPLSNAGPVGSLIAYIFMGTIVYFVTQSLGEMATFIPVTSSITVFSKRFLSPAFGVSNGYMYWFNWAITYAVEVSVIGQVIEYWTDKVPLAAWIAIFWVIITLMNFFPVKVYGEFEFWVASVKVLAIMGYLIYALIIVCGGSHQGPIGFRYWRNPGAWGPGIISSDKSEGRFLGWVSSLINAAFTYQGTELVGITAGEAANPRKTVPRAINKVVFRIVLFYIMSLFFIGLLVPYNDSRLSASSAVIASSPFVISIQNAGTYALPDIFNAVVLITVVSAANSNVYVGSRVLYSLARTGNAPKQFGYVTRQGVPYLGVVCTAALGLLAFLVVNNNANTAFNWLINISTLAGLCAWLFISLAHIRFMQALKHRGISRDDLPFKAKLMPYGAYYAAFFVTVIIFIQGFQAFCPFKVSEFFTSYISLILLAVVFIGCQIYYKCRFIWKLEDIDIDSDRREIEAIIWEDDEPKNLWEKFWAAVA
notes: full-length, YPet fluorescent protein fusion, plasmid-expressed in S. cerevisiae, assayed in whole cells
Km [4]: 10 µM

B2: Lyp1 (Lyp1-YPet) (Saccharomyces cerevisiae S288C; F471A/T469A) (protein)
chain: MGRFSNIITSNKWDEKQNNIGEQSMQELPEDQIEHEMEAIDPSNKTTPYSIDEKQYNTKKKHGSLQGGAIADVNSITNSLTRLQVVSHETDINEDEEEAHYEDKHVKRALKQRHIGMIALGGTIGTGLFVGISTPLSNAGPVGSLIAYIFMGTIVYFVTQSLGEMATFIPVTSSITVFSKRFLSPAFGVSNGYMYWFNWAITYAVEVSVIGQVIEYWTDKVPLAAWIAIFWVIITLMNFFPVKVYGEFEFWVASVKVLAIMGYLIYALIIVCGGSHQGPIGFRYWRNPGAWGPGIISSDKSEGRFLGWVSSLINAAFTYQGTELVGITAGEAANPRKTVPRAINKVVFRIVLFYIMSLFFIGLLVPYNDSRLSASSAVIASSPFVISIQNAGTYALPDIFNAVVLITVVSAANSNVYVGSRVLYSLARTGNAPKQFGYVTRQGVPYLGVVCTAALGLLAFLVVNNNANAAANWLINISTLAGLCAWLFISLAHIRFMQALKHRGISRDDLPFKAKLMPYGAYYAAFFVTVIIFIQGFQAFCPFKVSEFFTSYISLILLAVVFIGCQIYYKCRFIWKLEDIDIDSDRREIEAIIWEDDEPKNLWEKFWAAVA
notes: as for B1
Km [4]: 25 ± 21 µM

B3: Lyp1 (Lyp1-YPet) (Saccharomyces cerevisiae S288C; G292A/G294A/P293A) (protein)
chain: MGRFSNIITSNKWDEKQNNIGEQSMQELPEDQIEHEMEAIDPSNKTTPYSIDEKQYNTKKKHGSLQGGAIADVNSITNSLTRLQVVSHETDINEDEEEAHYEDKHVKRALKQRHIGMIALGGTIGTGLFVGISTPLSNAGPVGSLIAYIFMGTIVYFVTQSLGEMATFIPVTSSITVFSKRFLSPAFGVSNGYMYWFNWAITYAVEVSVIGQVIEYWTDKVPLAAWIAIFWVIITLMNFFPVKVYGEFEFWVASVKVLAIMGYLIYALIIVCGGSHQGPIGFRYWRNPGAWAAAIISSDKSEGRFLGWVSSLINAAFTYQGTELVGITAGEAANPRKTVPRAINKVVFRIVLFYIMSLFFIGLLVPYNDSRLSASSAVIASSPFVISIQNAGTYALPDIFNAVVLITVVSAANSNVYVGSRVLYSLARTGNAPKQFGYVTRQGVPYLGVVCTAALGLLAFLVVNNNANTAFNWLINISTLAGLCAWLFISLAHIRFMQALKHRGISRDDLPFKAKLMPYGAYYAAFFVTVIIFIQGFQAFCPFKVSEFFTSYISLILLAVVFIGCQIYYKCRFIWKLEDIDIDSDRREIEAIIWEDDEPKNLWEKFWAAVA
notes: as for B1
Km [4]: 63 ± 83 µM

B4: Lyp1 (Lyp1-YPet) (Saccharomyces cerevisiae S288C; E215A/W217A/Y216A) (protein)
chain: MGRFSNIITSNKWDEKQNNIGEQSMQELPEDQIEHEMEAIDPSNKTTPYSIDEKQYNTKKKHGSLQGGAIADVNSITNSLTRLQVVSHETDINEDEEEAHYEDKHVKRALKQRHIGMIALGGTIGTGLFVGISTPLSNAGPVGSLIAYIFMGTIVYFVTQSLGEMATFIPVTSSITVFSKRFLSPAFGVSNGYMYWFNWAITYAVEVSVIGQVIAAATDKVPLAAWIAIFWVIITLMNFFPVKVYGEFEFWVASVKVLAIMGYLIYALIIVCGGSHQGPIGFRYWRNPGAWGPGIISSDKSEGRFLGWVSSLINAAFTYQGTELVGITAGEAANPRKTVPRAINKVVFRIVLFYIMSLFFIGLLVPYNDSRLSASSAVIASSPFVISIQNAGTYALPDIFNAVVLITVVSAANSNVYVGSRVLYSLARTGNAPKQFGYVTRQGVPYLGVVCTAALGLLAFLVVNNNANTAFNWLINISTLAGLCAWLFISLAHIRFMQALKHRGISRDDLPFKAKLMPYGAYYAAFFVTVIIFIQGFQAFCPFKVSEFFTSYISLILLAVVFIGCQIYYKCRFIWKLEDIDIDSDRREIEAIIWEDDEPKNLWEKFWAAVA
notes: as for B1
Km [4]: 34 ± 17 µM

B5: Lyp1 (Lyp1-YPet) (Saccharomyces cerevisiae S288C; N390A/Q389A) (protein)
chain: MGRFSNIITSNKWDEKQNNIGEQSMQELPEDQIEHEMEAIDPSNKTTPYSIDEKQYNTKKKHGSLQGGAIADVNSITNSLTRLQVVSHETDINEDEEEAHYEDKHVKRALKQRHIGMIALGGTIGTGLFVGISTPLSNAGPVGSLIAYIFMGTIVYFVTQSLGEMATFIPVTSSITVFSKRFLSPAFGVSNGYMYWFNWAITYAVEVSVIGQVIEYWTDKVPLAAWIAIFWVIITLMNFFPVKVYGEFEFWVASVKVLAIMGYLIYALIIVCGGSHQGPIGFRYWRNPGAWGPGIISSDKSEGRFLGWVSSLINAAFTYQGTELVGITAGEAANPRKTVPRAINKVVFRIVLFYIMSLFFIGLLVPYNDSRLSASSAVIASSPFVISIAAAGTYALPDIFNAVVLITVVSAANSNVYVGSRVLYSLARTGNAPKQFGYVTRQGVPYLGVVCTAALGLLAFLVVNNNANTAFNWLINISTLAGLCAWLFISLAHIRFMQALKHRGISRDDLPFKAKLMPYGAYYAAFFVTVIIFIQGFQAFCPFKVSEFFTSYISLILLAVVFIGCQIYYKCRFIWKLEDIDIDSDRREIEAIIWEDDEPKNLWEKFWAAVA
notes: as for B1
Km [4]: 7.4 ± 1.0 µM

Source: paper PMC7687128, “Extracellular loops matter – subcellular location and function of the lysine transporter Lyp1 from Saccharomyces cerevisiae” (The Febs Journal, 2020)
